# According to patent publication US7923461B2, “TNF-α production inhibitors” (Santen Pharmaceutical Co., Ltd., priority 2000, dated 2011):
# System: TNF-α production
# Test: Inhibitory effects on TNF-α production induced by lipopolysaccharide (LPS) stimulation, in vivo test
# Parameters: species or system rat
# Details: Rattus norvegicus, 2 h; female rats, oral administration of 3 mg/kg immediately after LPS to footpad; plasma TNF-α (ELISA) two hours after LPS; read-out: Inhibition rate (%) of TNF-α production
# Procedure: Inhibitory effects on TNF-α production induced by lipopolysaccharide (LPS) stimulation were studied by in vivo tests according to the method of Tsuji et al. (Inflamm res. 46 (1997) 193-198).
# Female rats (five per group), body weight of about 200 g, about eight weeks old, were used as test animals. LPS from Salmonella was dissolved in physiological saline to prepare an LPS solution (1 mg/ml). Each test substance was dissolved or uniformly suspended in a 1% methylcellulose solution to give test substance-preparation liquids.
# The above-mentioned LPS solution (0.5 ml/kg) was administered to a footpad of the rat. Immediately after the LPS administration, the test substance-preparation liquid (containing 10 mg/kg or 3 mg/kg test substance) was orally administered. Two hours after the LPS administration, blood was collected from abdominal aorta and was centrifuged at 4° C. and 3000 rpm for ten minutes. TNF-α levels in the obtained plasma were measured with a rat TNF-α-specific ELISA kit. TNF-α was not observed in the plasma with respect to an LPS-non-administered group (control).
# Inhibition rates of TNF-α production of the test substances were determined by the following equation. Inhibition rate (%)=[(A−B)/A]×100 A: TNF-α level in plasma of test substance-nonadministered group B: TNF-α level in plasma of test substance-administered group (Results)
row,Compound,inhibition in vivo at 3 mg/kg
1,"CCCCCN(CCC12CC3CC(CC(C3)C1)C2)C(=O)NC[C@@H]1C[C@@H]1c1ccncc1 (relative stereo) [Compound No. 15-1, cis 1-[2-(1-Adamantyl)ethyl]-1-pentyl-3-[2-(4-pyridyl)cyclopropylmethyl]urea]",73.8%
2,"CCCCN(CCCC)C(=O)NCCCc1ccncc1 [Compound No. 1-10, 1,1-Dibutyl-3-[3-(4-pyridyl)propyl]urea]",63%

# Same assay, conditions: Rattus norvegicus, 2 h; female rats, oral administration of 10 mg/kg immediately after LPS to footpad; plasma TNF-α (ELISA) two hours after LPS; read-out: Inhibition rate (%) of TNF-α production
row,Compound,inhibition in vivo at 10 mg/kg
1,"CCCCCN(CCC12CC3CC(CC(C3)C1)C2)C(=O)NCC(C)Cc1ccncc1 (single isomer, unassigned; (-)) [Compound No. 1-120, (−)-1-[2-(1-Adamantyl)ethyl]-3-[2-methyl-3-(4-pyridyl)propyl]-1-pentylurea]",95.1%
2,"CCCCCN(CCC12CC3CC(CC(C3)C1)C2)C(=O)NCCCc1ccncc1 [Compound No. 1-1, 1-[2-(1-Adamantyl)ethyl]-1-pentyl-3-[3-(4-pyridyl)propyl]urea]",92.1%
3,"N#CCN(CCC12CC3CC(CC(C3)C1)C2)C(=O)NCCCc1ccncc1 [Compound No. 1-20, 1-[2-(1-Adamantyl)ethyl]-1-cyanomethyl-3-[3-(4-pyridyl)propyl]urea]",60%
4,"CN(CCN(CCC12CC3CC(CC(C3)C1)C2)C(=O)NCCCc1ccncc1)C(=O)OC(C)(C)C [Compound No. 1-26, 1-[2-(1-Adamantyl)ethyl]-1-[2-[N-(t-butoxycarbonyl)-N-methylamino]ethyl]-3-[3-(4-pyridyl)propyl]urea]",95.5%
5,"O=C(NCCCc1ccncc1)N(CCC12CC3CC(CC(C3)C1)C2)OCc1ccccc1 [Compound No. 1-28, 1-[2-(1-Adamantyl)ethyl]-1-benzyloxy-3-[3-(4-pyridyl)propyl]urea]",90.4%
6,"CCCN(CCCC12CC3CC(CC(C3)C1)C2)C(=O)NCCCc1ccncc1 [Compound No. 1-35, 1-[3-(1-Adamantyl)propyl]-1-propyl-3-[3-(4-pyridyl)propyl]urea]",82.5%
7,"Cc1nc(CN(CCC23CC4CC(CC(C4)C2)C3)C(=O)NCCCc2ccncc2)cs1 [Compound No. 1-37, 1-[2-(1-Adamantyl)ethyl]-1-(2-methylthiazol-4-yl)methyl-3-[3-(4-pyridyl)propyl]urea]",84.3%
8,"CCCCCN(CCCCC)C(=O)NCCCc1ccncc1 [Compound No. 1-38, 1,1-Dipentyl-3-[3-(4-pyridyl)propyl]urea]",92.3%

# System: not given
# Test: not given
# Details: not given
row,Compound,melting point
1,"O=C(NCCCc1ccncc1)N(CCCC(F)(F)F)CCC12CC3CC(CC(C3)C1)C2 [Compound No. 1-105, 1-[2-(1-Adamantyl)ethyl]-3-[3-(4-pyridyl)propyl]-1-(4,4,4-trifluorobutyl)urea]",142.6 to 145 °C
2,"O=C(NCCCc1ccncc1)N(CCCCC(F)(F)F)CCC12CC3CC(CC(C3)C1)C2 [Compound No. 1-106, 1-[2-(1-Adamantyl)ethyl]-3-[3-(4-pyridyl)propyl]-1-(5,5,5-trifluoropentyl)urea]",116.9 to 118.9 °C
3,"CCCCCN(CCC12CC3CC(CC(C3)C1)C2)C(=O)NCC(Cc1ccccc1)Cc1ccncc1 (centres unmarked) [Compound No. 1-109, 1-[2-(1-Adamantyl)ethyl]-3-[2-benzyl-3-(4-pyridyl)propyl]-1-pentylurea]",111 to 116 °C
4,"CCCCCN(CCC12CC3CC(CC(C3)C1)C2)C(=O)NC/C=C/c1ccncc1 [Compound No. 1-112, (E)-1-[2-(1-Adamantyl)ethyl]-1-pentyl-3-[3-(4-pyridyl)-2-propenyl]urea]",90 to 118 °C
5,"O=C(NCCCc1ccncc1)N(CCC12CC3CC(CC(C3)C1)C2)CC(F)(F)F [Compound No. 1-114, 1-[2-(1-Adamantyl)ethyl]-3-[3-(4-pyridyl)propyl]-1-(2,2,2-trifluoroethyl)urea]",106.2 to 107.3 °C
6,"O=C(NCCCc1ccncc1)N(CCCC12CC3CC(CC(C3)C1)C2)CC(F)(F)F [Compound No. 1-123, 1-[3-(1-Adamantyl)propyl]-3-[3-(4-pyridyl)propyl]-1-(2,2,2-trifluoroethyl)urea]",88.9 to 90 °C
7,"CCN(CCCCC12CC3CC(CC(C3)C1)C2)C(=O)NCCCc1ccncc1 [Compound No. 1-124, 1-[4-(1-Adamantyl)butyl]-1-ethyl-3-[3-(4-pyridyl)propyl]urea]",92.7 to 93.7 °C
8,"CCCN(CCCCC12CC3CC(CC(C3)C1)C2)C(=O)NCCCc1ccncc1 [Compound No. 1-125, 1-[4-(1-Adamantyl)butyl]-1-propyl-3-[3-(4-pyridyl)propyl]urea]",110 to 110.5 °C
9,"CCCCCN(CCC12CC3CC(CC(C3)C1)C2)C(=O)NCC(C)(C)Cc1ccncc1 [Compound No. 1-135, 1-[2-(1-Adamantyl)ethyl]-3-[2,2-dimethyl-3-(4-pyridyl)propyl]-1-pentylurea]",82.5 to 84.9 °C
10,"CC(C)(C)OC(=O)NCCN(CCC12CC3CC(CC(C3)C1)C2)C(=O)NCCCc1ccncc1 [Compound No. 10-8, 1-[2-(1-Adamantyl)ethyl]-1-[2-[N-(t-butoxycarbonyl)amino]ethyl]-3-[3-(4-pyridyl)propyl]urea]",158 to 160.5 °C
11,"CCCN(CCCC12CC3CC(CC(C3)C1)C2)C(=O)NCCCc1ccncc1.O=P(O)(O)O [Compound No. 13-10, 1-[3-(1-Adamantyl)propyl]-1-propyl-3-[3-(4-pyridyl)propyl]urea phosphate]",148 to 149 °C

# Results, then the compound that gave them:
row,melting point,Compound
1,93 to 98 °C,"CCCCCN(CCC12CC3CC(CC(C3)C1)C2)C(=O)NCCC(C)c1ccncc1 (centres unmarked) [Compound No. 1-104, 1-[2-(1-Adamantyl)ethyl]-1-pentyl-3-[3-(4-pyridyl)butyl]urea]"
2,72 to 77 °C,"CCCCCN(CCC12CC3CC(CC(C3)C1)C2)C(=O)NCC(CC)Cc1ccncc1 (centres unmarked) [Compound No. 1-108, 1-[2-(1-Adamantyl)ethyl]-1-pentyl-3-[2-(4-pyridylmethyl)butyl]urea]"
3,124 to 136 °C,"CCCCCN(CCC12CC3CC(CC(C3)C1)C2)C(=O)NCC(Cc1ccncc1)Cc1ccncc1 [Compound No. 1-110, 1-[2-(1-Adamantyl)ethyl]-3-[2,2-bis(4-pyridylmethyl)ethyl]-1-pentylurea]"
4,49 to 50 °C,"CCCCCN(CCc1ccccc1)C(=O)NCC(C)Cc1ccncc1 (centres unmarked) [Compound No. 1-115, 3-[2-Methyl-3-(4-pyridyl)propyl]-1-pentyl-1-phenethylurea]"
5,81.1 to 84.1 °C,"CC(CNC(=O)N(CCC(F)(F)F)CCC12CC3CC(CC(C3)C1)C2)Cc1ccncc1 (centres unmarked) [Compound No. 1-117, 1-[2-(1-Adamantyl)ethyl]-3-[2-methyl-3-(4-pyridyl)propyl]-1-(3,3,3-trifluoropropyl)urea]"
6,79.8 to 80.4 °C,"CCCCN(CCCC12CC3CC(CC(C3)C1)C2)C(=O)NCCCc1ccncc1 [Compound No. 1-122, 1-[3-(1-Adamantyl)propyl]-1-butyl-3-[3-(4-pyridyl)propyl]urea]"
7,133.9 to 134.5 °C,"CCCCCN(CCC12CC3CC(CC(C3)C1)C2)C(=O)NCCNc1ccncc1 [Compound No. 1-126, 1-[2-(1-Adamantyl)ethyl]-1-pentyl-3-[2-(4-pyridylamino)ethyl]urea]"
8,96 to 98 °C,"CCCN(CCCC12CC3CC(CC(C3)C1)C2)C(=O)NCc1ccncc1 [Compound No. 1-128, 1-[3-(1-Adamantyl)propyl]-1-propyl-3-(4-pyridyl)methylurea]"
9,97.5 to 98.2 °C,"CCN(CCCC12CC3CC(CC(C3)C1)C2)C(=O)NCCCc1ccncc1 [Compound No. 1-130, 1-[3-(1-Adamantyl)propyl]-1-ethyl-3-[3-(4-pyridyl)propyl]urea]"
10,132 to 132.5 °C,"CCCN(CC(=O)NC12CC3CC(CC(C3)C1)C2)C(=O)NCCCc1ccncc1 [Compound No. 1-132, 1-(1-Adamantyl)aminocarbonylmethyl-1-propyl-3-[3-(4-pyridyl)propyl]urea]"
11,105.6 to 107.1 °C,"OCCN(CCc1ccccc1)C(=S)NCCCc1ccncc1 [Compound No. 7-2, 1-(2-Hydroxyethyl)-1-phenethyl-3-[3-(4-pyridyl)propyl]thiourea]"
12,164.9 to 167.2 °C,"CN(CCN(CCC12CC3CC(CC(C3)C1)C2)C(=O)NCCCc1ccncc1)S(C)(=O)=O [Compound No. 10-4, 1-[2-(1-Adamantyl)ethyl]-1-[2-[N-methyl-N-(methylsulfonyl)amino]ethyl]-3-[3-(4-pyridyl)propyl]urea]"
13,101.4 to 102.4 °C,"CN(CCN(CCC12CC3CC(CC(C3)C1)C2)C(=O)NCCCc1ccncc1)C(=O)CC(C)(C)C [Compound No. 10-6, 1-[2-(1-Adamantyl)ethyl]-1-[2-[N-(3,3-dimethylbutyryl)-N-methylamino]ethyl]-3-[3-(4-pyridyl)propyl]urea]"
14,47 to 52 °C,"CN(CCN(CCC12CC3CC(CC(C3)C1)C2)C(=O)NCCCc1ccncc1)C(=O)OC(C)(C)C(Cl)(Cl)Cl [Compound No. 10-10, 1-[2-(1-Adamantyl)ethyl]-1-[2-[N-(1,1-dimethyl-2,2,2-trichloroethoxycarbonyl)-N-methylamino]ethyl]-3-[3-(4-pyridyl)propyl]urea]"
